The supplement of paper PMC8149375

Assays:
Conditions in all cases: treatment: drug + dasatinib (fixed dose, not stated); 5 days
769-P [1] = experiment: GI50 of drug in presence of dasatinib; higher = less potent
Description: (§1)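 Primary HTS combination arm: 8 RCC cell lines treated with 8 doses (up to 10 uM) of each library drug plus a fixed dose of dasatinib (dose not stated) for 5 days; viability read by CellTiter-Glo and normalised to DMSO. GI50 was fitted with XLfit, AUC is the area under the dose-response curve, and minimum viability is the lowest fraction of DMSO viability across doses.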

786-O [2] = experiment: as above
Description: as §1

A498 [3] = experiment: as above
Description: as §1

ACHN [4] = experiment: as above
Description: as §1

CAKI-1 [5] = experiment: as above
Description: as §1

SN12C [6] = experiment: as above
Description: as §1

TK-10 [7] = experiment: as above
Description: as §1

UO-31 [8] = experiment: as above
Description: as §1

769-P [9] = experiment: minimum viability across doses, drug + dasatinib, relative to DMSO (fraction); higher = less growth inhibition
Description: as §1

786-O [10] = experiment: as above
Description: as §1

A498 [11] = experiment: as above
Description: as §1

ACHN [12] = experiment: as above
Description: as §1

CAKI-1 [13] = experiment: as above
Description: as §1

SN12C [14] = experiment: as above
Description: as §1

TK-10 [15] = experiment: as above
Description: as §1

UO-31 [16] = experiment: as above
Description: as §1

769-P [17] = experiment: AUC of dose-response viability curve, drug + dasatinib, normalised to DMSO (arbitrary (AUC of normalised viability)); higher = less growth inhibition
Description: as §1

786-O [18] = experiment: as above
Description: as §1

A498 [19] = experiment: as above
Description: as §1

ACHN [20] = experiment: as above
Description: as §1

CAKI-1 [21] = experiment: as above
Description: as §1

SN12C [22] = experiment: as above
Description: as §1

TK-10 [23] = experiment: as above
Description: as §1

UO-31 [24] = experiment: as above
Description: as §1

| GI50 of drug (786-O [2]) | GI50 of drug (ACHN [4]) | Compound | GI50 of drug (769-P [1]) | GI50 of drug (A498 [3]) | GI50 of drug (CAKI-1 [5]) | GI50 of drug (SN12C [6]) | GI50 of drug (TK-10 [7]) | GI50 of drug (UO-31 [8]) | minimum viability across doses (769-P [9]) | minimum viability across doses (786-O [10]) | minimum viability across doses (A498 [11]) | minimum viability across doses (ACHN [12]) | minimum viability across doses (CAKI-1 [13]) | minimum viability across doses (SN12C [14]) | minimum viability across doses (TK-10 [15]) | minimum viability across doses (UO-31 [16]) | AUC of dose-response viability curve (769-P [17]) | AUC of dose-response viability curve (786-O [18]) | AUC of dose-response viability curve (A498 [19]) | AUC of dose-response viability curve (ACHN [20]) | AUC of dose-response viability curve (CAKI-1 [21]) | AUC of dose-response viability curve (SN12C [22]) | AUC of dose-response viability curve (TK-10 [23]) | AUC of dose-response viability curve (UO-31 [24]) |
| --- | --- | --- | --- | --- | --- | --- | --- | --- | --- | --- | --- | --- | --- | --- | --- | --- | --- | --- | --- | --- | --- | --- | --- | --- |
| 953 nM | 162 nM | CN(C)c1ccc(-c2nc3c(N4CCN(CC(=O)Nc5nccs5)CC4)c(Cl)cnc3[nH]2)cc1 + Cc1nc(Nc2ncc(C(=O)Nc3c(C)cccc3Cl)s2)cc(N2CCN(CCO)CC2)n1 [dasatinib] | 1950 nM | 3.35 µM | 334 nM | 976 nM | 4030 nM | 2840 nM | 0.307 | 0.26 | 0.281 | 0.145 | 0.0775 | 0.2 | 0.487 | 0.107 | 2.19 | 1.91 | 2.88 | 1.53 | 1.69 | 2.03 | 2.34 | 3.26 |
| 232 nM | 141 nM | Cc1cc(CN2CCN(c3c(Br)cnc4[nH]c(-c5ccc(N6CCN(C)CC6)cc5)nc34)CC2)no1 + Cc1nc(Nc2ncc(C(=O)Nc3c(C)cccc3Cl)s2)cc(N2CCN(CCO)CC2)n1 [dasatinib] | 504 nM | 2.01 µM | 231 nM | 626 nM | 1820 nM | 2450 nM | 0.019 | 0.00361 | 0.0164 | 0.0106 | 0.00433 | 0.00484 | 0.198 | 0.0168 | 1.76 | 1.52 | 3.1 | 1.5 | 1.57 | 1.78 | 2.24 | 3.64 |
| 7250 nM | 230 nM | Cc1c(NC(=O)OC[C@@H]2COCCN2)cn2ncnc(Nc3ccc4c(cnn4Cc4cccc(F)c4)c3)c12.Cl + Cc1nc(Nc2ncc(C(=O)Nc3c(C)cccc3Cl)s2)cc(N2CCN(CCO)CC2)n1 [dasatinib] | 652 nM | > 10 µM | 2430 nM | > 10000 nM | 1140 nM | 5460 nM | 0.157 | 0.444 | 0.858 | 0.249 | 0.441 | 0.662 | 0.19 | 0.251 | 2.01 | 2.62 | 3.28 | 1.84 | 2.24 | 2.47 | 2.31 | 2.98 |
| > 10000 nM | 1040 nM | Cc1cc2c(F)c(Oc3ncnn4cc(OC[C@@H](C)O)c(C)c34)ccc2[nH]1 + Cc1nc(Nc2ncc(C(=O)Nc3c(C)cccc3Cl)s2)cc(N2CCN(CCO)CC2)n1 [dasatinib] | > 10000 nM | > 10 µM | 6470 nM | > 10000 nM | > 10000 nM | > 10000 nM | 0.682 | 0.656 | 0.789 | 0.343 | 0.179 | 0.621 | 0.693 | 0.528 | 2.59 | 2.65 | 3.38 | 1.8 | 2.3 | 2.39 | 2.68 | 3.43 |
